Broadly, the melting point is the temperature of the solid-liquid transition.

This passage reports melting point and MIC results from patent US7884118B2, “1-cycloalkyl-5-iodotetrazoles” (LANXESS Deutschland GmbH, priority 2005, dated 2011).

One data set has as its system Chaetomium globosum. In words: Minimum inhibitory concentration (MIC) against fungi, malt extract agar. It counts as cell-based. The settings on record: 336 h, 2 weeks at 28° C., 60 to 70% relative atmospheric humidity, read-out: Minimum inhibitory concentrations Chaetomium globosum. The protocol: (§1) In each case, the active compounds according to the invention, in concentrations of from 0.1 mg/l to 5000 mg/l, were added to an agar which had been prepared using malt extracts. The MIC was determined after 2 weeks of storage at 28° C. and 60 to 70% relative atmospheric humidity. The MIC is the lowest concentration of active compound at which there is no colonization by the microbial species used.

Another data set has as its system Aspergillus niger. The data set is described as above. It counts as cell-based. The settings on record: 336 h, 2 weeks at 28° C., 60 to 70% relative atmospheric humidity, read-out: Minimum inhibitory concentrations Aspergillus niger. As to the method: as §1
A further data set deals with Penicillium brevicaule. The data set is described as above. The settings on record: 336 h, 2 weeks at 28° C., 60 to 70% relative atmospheric humidity, read-out: Minimum inhibitory concentrations Penicillium brevicaule. It counts as cell-based. The protocol:
as §1

Molecules are shown by their SMILES.

The molecule `Ic1nnnn1C1CCCC1` [Example 1, 1-Cyclopentyl-5-iodotetrazole] came in with a melting point of 119 °C. Also, the MIC in the data set on Chaetomium globosum was < 20 µg/mL. The MIC with Aspergillus niger was < 20 µg/mL. The MIC in the data set with Penicillium brevicaule is < 20 µg/mL.
